Experimental data: ChEMBL document CHEMBL5291721, “A preclinical secondary pharmacology resource illuminates target-adverse drug reaction associations of marketed drugs” (Nat Commun, 2023)

What was measured:
[1] = molecular target: T1, Peroxisome proliferator-activated receptor alpha (Homo sapiens, UniProt Q07869); format: functional
T1 sequence (Q07869 whole entry): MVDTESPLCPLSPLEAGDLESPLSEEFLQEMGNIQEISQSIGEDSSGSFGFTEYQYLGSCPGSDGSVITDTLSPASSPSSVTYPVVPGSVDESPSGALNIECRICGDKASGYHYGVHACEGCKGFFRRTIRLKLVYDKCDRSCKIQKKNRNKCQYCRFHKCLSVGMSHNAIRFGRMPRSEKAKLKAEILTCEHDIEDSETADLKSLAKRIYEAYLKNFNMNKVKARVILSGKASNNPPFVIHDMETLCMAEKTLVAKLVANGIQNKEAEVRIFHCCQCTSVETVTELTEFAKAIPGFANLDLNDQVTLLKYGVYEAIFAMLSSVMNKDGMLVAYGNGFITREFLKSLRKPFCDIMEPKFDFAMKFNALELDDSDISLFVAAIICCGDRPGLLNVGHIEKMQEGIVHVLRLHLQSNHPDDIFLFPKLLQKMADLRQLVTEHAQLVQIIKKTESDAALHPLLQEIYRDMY

[2] = molecular target: D(1A) dopamine receptor (Homo sapiens, UniProt P21728); format: functional, cell-based
Chain of D(1A) dopamine receptor (P21728 whole entry): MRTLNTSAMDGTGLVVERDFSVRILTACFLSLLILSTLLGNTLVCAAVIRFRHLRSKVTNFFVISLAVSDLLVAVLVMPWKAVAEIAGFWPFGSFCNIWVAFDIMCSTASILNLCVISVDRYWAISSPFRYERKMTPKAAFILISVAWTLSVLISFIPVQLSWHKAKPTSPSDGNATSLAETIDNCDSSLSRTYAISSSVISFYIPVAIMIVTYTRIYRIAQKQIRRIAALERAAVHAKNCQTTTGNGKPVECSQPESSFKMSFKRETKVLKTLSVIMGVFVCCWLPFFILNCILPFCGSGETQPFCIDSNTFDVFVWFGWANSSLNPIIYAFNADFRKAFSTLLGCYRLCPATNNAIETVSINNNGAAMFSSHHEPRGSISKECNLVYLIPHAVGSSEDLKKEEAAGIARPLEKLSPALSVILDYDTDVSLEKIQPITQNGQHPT

[3] = molecular target: T2, Muscarinic acetylcholine receptor M2 (Homo sapiens, UniProt P08172)
T2 sequence (P08172 whole entry): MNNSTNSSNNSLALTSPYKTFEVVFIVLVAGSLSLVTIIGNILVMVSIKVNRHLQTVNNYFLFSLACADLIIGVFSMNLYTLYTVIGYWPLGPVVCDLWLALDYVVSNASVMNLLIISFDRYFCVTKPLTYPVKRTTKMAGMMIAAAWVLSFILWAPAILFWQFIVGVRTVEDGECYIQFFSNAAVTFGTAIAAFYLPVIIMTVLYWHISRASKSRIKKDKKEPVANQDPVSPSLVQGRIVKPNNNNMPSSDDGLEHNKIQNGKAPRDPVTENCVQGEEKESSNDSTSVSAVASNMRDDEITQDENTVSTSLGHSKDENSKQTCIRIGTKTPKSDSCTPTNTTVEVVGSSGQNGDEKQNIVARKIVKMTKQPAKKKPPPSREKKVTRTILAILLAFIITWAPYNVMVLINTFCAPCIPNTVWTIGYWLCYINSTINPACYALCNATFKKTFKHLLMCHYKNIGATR

[4] = molecular target: D(3) dopamine receptor (Homo sapiens, UniProt P35462)
Chain of D(3) dopamine receptor (P35462 whole entry): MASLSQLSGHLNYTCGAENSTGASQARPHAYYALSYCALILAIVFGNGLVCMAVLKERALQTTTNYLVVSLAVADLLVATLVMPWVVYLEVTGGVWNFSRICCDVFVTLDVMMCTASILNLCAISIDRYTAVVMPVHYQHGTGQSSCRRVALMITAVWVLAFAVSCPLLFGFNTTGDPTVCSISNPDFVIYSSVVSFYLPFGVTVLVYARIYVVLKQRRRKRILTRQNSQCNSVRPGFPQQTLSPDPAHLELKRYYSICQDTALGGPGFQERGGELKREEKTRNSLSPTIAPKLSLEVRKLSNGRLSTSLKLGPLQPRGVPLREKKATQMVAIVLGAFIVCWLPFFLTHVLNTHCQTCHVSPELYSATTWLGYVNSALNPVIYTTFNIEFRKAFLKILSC

[5] = molecular target: Gamma-aminobutyric acid receptor subunit alpha-1 (Rattus norvegicus, UniProt P62813)
Chain of Gamma-aminobutyric acid receptor subunit alpha-1 (P62813 whole entry): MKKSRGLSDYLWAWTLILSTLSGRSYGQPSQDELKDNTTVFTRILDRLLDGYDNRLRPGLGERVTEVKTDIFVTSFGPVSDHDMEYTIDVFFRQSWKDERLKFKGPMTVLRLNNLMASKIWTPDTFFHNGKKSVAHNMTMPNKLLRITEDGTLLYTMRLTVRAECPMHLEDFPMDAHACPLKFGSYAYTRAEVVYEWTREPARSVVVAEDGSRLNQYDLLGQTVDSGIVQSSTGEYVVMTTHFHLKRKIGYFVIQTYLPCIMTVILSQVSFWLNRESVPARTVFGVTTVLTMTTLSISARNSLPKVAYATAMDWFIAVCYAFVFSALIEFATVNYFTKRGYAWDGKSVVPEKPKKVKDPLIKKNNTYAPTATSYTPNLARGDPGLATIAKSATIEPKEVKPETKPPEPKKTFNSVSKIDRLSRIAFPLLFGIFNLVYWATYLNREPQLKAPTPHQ

[6] = molecular target: Histamine H3 receptor (Homo sapiens, UniProt Q9Y5N1)
Chain of Histamine H3 receptor (Q9Y5N1 whole entry): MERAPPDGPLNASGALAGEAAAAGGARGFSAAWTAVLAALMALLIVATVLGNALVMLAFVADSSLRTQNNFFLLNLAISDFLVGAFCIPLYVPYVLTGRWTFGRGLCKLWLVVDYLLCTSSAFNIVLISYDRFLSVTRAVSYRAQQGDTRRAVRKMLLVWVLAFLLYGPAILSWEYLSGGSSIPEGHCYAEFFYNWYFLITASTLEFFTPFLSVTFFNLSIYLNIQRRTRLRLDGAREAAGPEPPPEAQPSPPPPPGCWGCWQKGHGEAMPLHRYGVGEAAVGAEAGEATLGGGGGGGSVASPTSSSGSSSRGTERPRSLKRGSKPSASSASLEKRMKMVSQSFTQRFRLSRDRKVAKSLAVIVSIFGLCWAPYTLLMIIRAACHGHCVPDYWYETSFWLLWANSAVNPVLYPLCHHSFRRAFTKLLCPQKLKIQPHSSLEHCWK

[7] = molecular target: 5-hydroxytryptamine receptor 2B (Homo sapiens, UniProt P41595); format: functional, cell-based
Chain of 5-hydroxytryptamine receptor 2B (P41595 whole entry): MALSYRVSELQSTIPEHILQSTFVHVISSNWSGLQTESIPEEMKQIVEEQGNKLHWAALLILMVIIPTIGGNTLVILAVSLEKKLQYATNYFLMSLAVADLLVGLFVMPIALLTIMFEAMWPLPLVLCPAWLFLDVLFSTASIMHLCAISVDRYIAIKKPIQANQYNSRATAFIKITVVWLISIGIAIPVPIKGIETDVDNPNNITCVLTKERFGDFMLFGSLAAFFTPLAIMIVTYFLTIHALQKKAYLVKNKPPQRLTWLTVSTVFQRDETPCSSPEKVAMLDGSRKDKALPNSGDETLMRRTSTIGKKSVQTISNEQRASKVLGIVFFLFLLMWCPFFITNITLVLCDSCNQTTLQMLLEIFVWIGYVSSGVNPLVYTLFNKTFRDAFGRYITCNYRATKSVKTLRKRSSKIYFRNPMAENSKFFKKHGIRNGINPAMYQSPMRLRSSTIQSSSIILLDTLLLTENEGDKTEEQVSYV

[8] = molecular target: cGMP-inhibited 3',5'-cyclic phosphodiesterase 3A (Homo sapiens, UniProt Q14432); format: functional
Chain of cGMP-inhibited 3',5'-cyclic phosphodiesterase 3A (Q14432 whole entry): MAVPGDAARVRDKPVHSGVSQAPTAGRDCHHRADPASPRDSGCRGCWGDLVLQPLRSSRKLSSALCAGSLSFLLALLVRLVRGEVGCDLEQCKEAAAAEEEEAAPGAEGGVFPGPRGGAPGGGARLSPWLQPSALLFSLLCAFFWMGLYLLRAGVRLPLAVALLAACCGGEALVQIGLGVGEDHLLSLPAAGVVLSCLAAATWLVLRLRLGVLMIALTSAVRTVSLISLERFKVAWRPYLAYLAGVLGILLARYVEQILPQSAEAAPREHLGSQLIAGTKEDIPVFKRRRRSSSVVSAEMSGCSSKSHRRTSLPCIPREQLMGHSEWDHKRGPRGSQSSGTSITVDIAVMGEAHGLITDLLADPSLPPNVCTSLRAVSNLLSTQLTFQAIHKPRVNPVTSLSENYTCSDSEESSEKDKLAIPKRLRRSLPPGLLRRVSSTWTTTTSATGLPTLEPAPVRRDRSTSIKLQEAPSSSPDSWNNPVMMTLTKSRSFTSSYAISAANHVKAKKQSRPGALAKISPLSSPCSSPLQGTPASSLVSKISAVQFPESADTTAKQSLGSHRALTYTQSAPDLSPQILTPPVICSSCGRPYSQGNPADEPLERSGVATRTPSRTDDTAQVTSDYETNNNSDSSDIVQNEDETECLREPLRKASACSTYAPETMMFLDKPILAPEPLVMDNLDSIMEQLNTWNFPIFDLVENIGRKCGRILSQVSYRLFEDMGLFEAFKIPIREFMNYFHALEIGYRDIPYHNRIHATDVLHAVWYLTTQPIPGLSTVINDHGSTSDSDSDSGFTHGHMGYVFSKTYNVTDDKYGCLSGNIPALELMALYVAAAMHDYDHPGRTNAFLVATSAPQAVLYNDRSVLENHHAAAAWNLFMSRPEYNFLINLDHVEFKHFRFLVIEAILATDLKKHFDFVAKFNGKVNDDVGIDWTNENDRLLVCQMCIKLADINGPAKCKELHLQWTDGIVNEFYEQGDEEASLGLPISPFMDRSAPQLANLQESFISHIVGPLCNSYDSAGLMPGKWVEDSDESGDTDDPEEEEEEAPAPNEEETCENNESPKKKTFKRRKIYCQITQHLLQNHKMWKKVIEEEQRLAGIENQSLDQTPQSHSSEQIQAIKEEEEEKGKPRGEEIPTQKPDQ

[9] = molecular target: 3',5'-cyclic-AMP phosphodiesterase 4A (Homo sapiens, UniProt P27815); format: functional
Chain of 3',5'-cyclic-AMP phosphodiesterase 4A (P27815 whole entry): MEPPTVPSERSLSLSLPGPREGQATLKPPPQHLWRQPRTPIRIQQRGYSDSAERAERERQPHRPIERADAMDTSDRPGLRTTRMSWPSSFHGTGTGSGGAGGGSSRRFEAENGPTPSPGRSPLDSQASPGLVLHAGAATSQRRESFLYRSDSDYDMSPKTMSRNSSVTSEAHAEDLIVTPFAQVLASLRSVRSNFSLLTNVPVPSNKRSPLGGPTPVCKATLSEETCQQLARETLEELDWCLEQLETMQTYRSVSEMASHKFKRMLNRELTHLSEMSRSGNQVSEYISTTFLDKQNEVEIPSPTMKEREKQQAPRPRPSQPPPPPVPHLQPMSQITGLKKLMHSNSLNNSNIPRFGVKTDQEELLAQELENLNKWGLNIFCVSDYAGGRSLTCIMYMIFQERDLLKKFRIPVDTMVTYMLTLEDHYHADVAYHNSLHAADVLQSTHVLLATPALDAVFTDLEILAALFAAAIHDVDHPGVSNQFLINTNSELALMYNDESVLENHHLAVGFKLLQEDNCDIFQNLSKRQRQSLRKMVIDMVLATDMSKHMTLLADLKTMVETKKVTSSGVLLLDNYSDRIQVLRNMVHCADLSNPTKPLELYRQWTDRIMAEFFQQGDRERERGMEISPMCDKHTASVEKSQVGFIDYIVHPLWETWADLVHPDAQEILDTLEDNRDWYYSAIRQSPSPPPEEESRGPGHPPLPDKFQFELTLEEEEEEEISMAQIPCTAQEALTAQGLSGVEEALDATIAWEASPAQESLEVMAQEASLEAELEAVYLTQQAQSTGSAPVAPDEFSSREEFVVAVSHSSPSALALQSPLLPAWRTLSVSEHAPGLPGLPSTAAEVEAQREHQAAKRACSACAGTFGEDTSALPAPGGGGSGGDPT

[10] = molecular target: T3, Progesterone receptor (Homo sapiens, UniProt P06401)
T3 sequence (P06401 whole entry): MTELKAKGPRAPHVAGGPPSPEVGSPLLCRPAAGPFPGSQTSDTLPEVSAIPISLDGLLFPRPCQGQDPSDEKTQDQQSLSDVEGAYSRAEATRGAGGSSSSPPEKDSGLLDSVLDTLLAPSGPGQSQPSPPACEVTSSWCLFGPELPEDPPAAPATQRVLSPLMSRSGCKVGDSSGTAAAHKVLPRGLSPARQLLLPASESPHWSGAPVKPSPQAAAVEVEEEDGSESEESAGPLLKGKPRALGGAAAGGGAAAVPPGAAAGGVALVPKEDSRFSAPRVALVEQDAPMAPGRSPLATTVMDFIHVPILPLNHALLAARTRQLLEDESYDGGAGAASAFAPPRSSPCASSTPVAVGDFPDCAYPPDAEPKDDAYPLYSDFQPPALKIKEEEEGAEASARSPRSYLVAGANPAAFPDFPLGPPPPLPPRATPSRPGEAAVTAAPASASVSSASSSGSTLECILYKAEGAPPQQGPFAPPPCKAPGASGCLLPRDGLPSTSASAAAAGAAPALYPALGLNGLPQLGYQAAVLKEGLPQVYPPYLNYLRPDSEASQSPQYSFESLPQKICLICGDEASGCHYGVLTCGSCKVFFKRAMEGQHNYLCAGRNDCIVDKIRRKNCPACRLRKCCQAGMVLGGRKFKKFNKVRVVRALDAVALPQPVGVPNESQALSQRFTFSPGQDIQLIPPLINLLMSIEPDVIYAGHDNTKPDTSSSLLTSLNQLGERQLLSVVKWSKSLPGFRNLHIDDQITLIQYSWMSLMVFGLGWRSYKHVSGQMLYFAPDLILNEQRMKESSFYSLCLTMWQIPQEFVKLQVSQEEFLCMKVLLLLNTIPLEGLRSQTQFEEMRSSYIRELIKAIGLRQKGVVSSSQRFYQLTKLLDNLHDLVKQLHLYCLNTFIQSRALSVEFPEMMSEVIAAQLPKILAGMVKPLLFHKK

[11] = molecular target: T4, Prostaglandin G/H synthase 1 (Homo sapiens, UniProt P23219); format: functional
T4 sequence (P23219 whole entry): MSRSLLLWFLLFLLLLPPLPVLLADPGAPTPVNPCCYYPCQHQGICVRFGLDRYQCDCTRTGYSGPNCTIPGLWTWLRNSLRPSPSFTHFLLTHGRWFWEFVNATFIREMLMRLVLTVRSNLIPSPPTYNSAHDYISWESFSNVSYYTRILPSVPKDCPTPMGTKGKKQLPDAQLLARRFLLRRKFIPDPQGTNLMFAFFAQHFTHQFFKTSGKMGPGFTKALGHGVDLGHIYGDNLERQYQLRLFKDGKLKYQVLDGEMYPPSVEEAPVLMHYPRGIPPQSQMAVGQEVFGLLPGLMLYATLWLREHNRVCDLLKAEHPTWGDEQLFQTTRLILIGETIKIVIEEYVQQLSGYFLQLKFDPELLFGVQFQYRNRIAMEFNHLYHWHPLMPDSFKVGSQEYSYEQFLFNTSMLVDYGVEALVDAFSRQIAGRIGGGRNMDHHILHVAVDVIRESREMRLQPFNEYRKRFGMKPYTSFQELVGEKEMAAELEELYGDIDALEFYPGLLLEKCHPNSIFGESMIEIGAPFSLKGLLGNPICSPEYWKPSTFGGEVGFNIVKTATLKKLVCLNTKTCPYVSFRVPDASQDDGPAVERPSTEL

[12] = molecular target: T4, Prostaglandin G/H synthase 1; format: functional; remark: listed apart in the source
[13] = molecular target: T5, Thromboxane A2 receptor (Homo sapiens, UniProt P21731); format: functional, cell-based
T5 sequence (P21731 whole entry): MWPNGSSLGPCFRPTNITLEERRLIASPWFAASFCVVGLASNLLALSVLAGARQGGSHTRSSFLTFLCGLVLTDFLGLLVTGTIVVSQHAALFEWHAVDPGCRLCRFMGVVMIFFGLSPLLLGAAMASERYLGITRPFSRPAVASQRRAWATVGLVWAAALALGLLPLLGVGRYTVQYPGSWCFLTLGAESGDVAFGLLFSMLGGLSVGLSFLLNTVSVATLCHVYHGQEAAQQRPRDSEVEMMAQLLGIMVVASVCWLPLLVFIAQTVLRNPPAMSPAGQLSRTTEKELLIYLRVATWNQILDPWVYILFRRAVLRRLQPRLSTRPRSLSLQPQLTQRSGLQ

Measured: AC50
Also: assay procedure not described here.

CC(C)c1c(C(=O)Nc2ccccc2)c(-c2ccccc2)c(-c2ccc(F)cc2)n1CC[C@@H](O)C[C@@H](O)CC(=O)O [ATORVASTATIN]
> 30 µM: [1]

CC(C)(Oc1ccc(C2CC2(Cl)Cl)cc1)C(=O)O (stereo unspecified) [CIPROFIBRATE]
> 30 µM: [1]

CCN1CCC[C@H]1CNC(=O)c1cc(S(N)(=O)=O)ccc1OC [LEVOSULPIRIDE]
> 30 µM: [2]

CCCCCCC(C)(C)c1cc(O)c2c(c1)OC(C)(C)C1CCC(=O)CC21 (stereo unspecified) [NABILONE]
> 30 µM: [2]

Nc1nc2ccc(OC(F)(F)F)cc2s1 [RILUZOLE]
not listed: [1] | [2]
> 30 µM: all other assays above

BIVALIRUDIN
not listed: [1] | [2]
> 30 µM: all other assays above
